# Measurements published in patent US20210308089A1, “METHODS OF TREATING AND/OR PREVENTING VIRAL INFECTIONS AND/OR DISEASES CAUSED BY VIRUSES IN A SUBJECT IN NEED THEREOF” (priority 2020, published 2021).
# Tested on: patients of the REDUCE-IT and earlier EPA placebo-controlled trials
# Assay: Example 3: adverse events by risk ratio, icosapent ethyl vs placebo (candidate categories; infectious disease terms of interest)
# Conditions: for NNT / Risk Ratio (95% CI) / ARR: ISS
# [1] = Frequent Bowel Movements, Any Severity
# [2] = Frequent Bowel Movements, Mild Severity
# [3] = Frequent Bowel Movements, Related
# [4] = Huntington's Chorea, Any Severity
# [5] = Huntington's Chorea, Mild Severity
# [6] = ITT, AMR101 N = 4089, placebo 8 of 4090
# [7] = ITT, AMR101 N = 4089, placebo 10 of 4090
# [8] = ITT, AMR101 N = 4089, placebo 22 of 4090
smiles,measurement,setting,value
"CC/C=C\C/C=C\C/C=C\C/C=C\C/C=C\CCCC(=O)OCC [icosapent ethyl, eicosapentaenoic acid ethyl ester]",NNT,"Flatulence, Mild Severity",129
same,Risk Ratio (95% CI),"Flatulence, Mild Severity",0.424 (0.125 to 1.440) 3
same,ARR,"Flatulence, Related",−0.8%
same,NNT,"Flatulence, Related",121
same,Risk Ratio (95% CI),"Flatulence, Related",0.463 (0.152 to 1.408) 3
same,ARR,[1],−0.6%
same,NNT,[1],173
same,Risk Ratio (95% CI),"Frequent Bowel Movements, Any Severity, case counts given",[0 drug vs 3 PBO]
same,ARR,[2],−0.4%
same,NNT,[2],259
same,Risk Ratio (95% CI),"Frequent Bowel Movements, Mild Severity, case counts given",[0 drug vs 2 PBO]
same,ARR,[3],−0.6%
same,NNT,[3],173
same,Risk Ratio (95% CI),"Frequent Bowel Movements, Related, case counts given",[0 drug vs 3 PBO]
same,ARR,Hot Flush,−0.3%
same,NNT,Hot Flush,292
same,Risk Ratio (95% CI),Hot Flush,0.556 (0.125 to 2.474) 3
same,ARR,[4],−1.3%
same,NNT,[4],77
same,Risk Ratio (95% CI),[4],0.247 (0.067 to 0.908) 4
same,ARR,[5],−0.9%
same,NNT,[5],109
same,Risk Ratio (95% CI),[5],0.318 (0.083 to 1.223)4
same,ARR,Menorrhagia,−0.6%
same,NNT,Menorrhagia,159
same,Risk Ratio (95% CI),Menorrhagia,0.185 (0.021 to 1.653) 5
same,ARR,"Muscle spasms, Related",−0.0%
same,NNT,"Muscle spasms, Related",2007
same,Risk Ratio (95% CI),"Muscle spasms, Related",0.741 (0.046 to 11.826) 2
same,ARR,"Nasopharyngitis, Any Severity",−2.3%
same,NNT,"Nasopharyngitis, Any Severity",43
same,Risk Ratio (95% CI),"Nasopharyngitis, Any Severity",0.588 (0.344 to 1.004) 3
same,ARR,"Nasopharyngitis, Mild Severity",−2.3%
same,NNT,"Nasopharyngitis, Mild Severity",43
same,Risk Ratio (95% CI),"Nasopharyngitis, Mild Severity",0.494 (0.265 to 0.921) 3
same,ARR,"Weight loss, Related",−0.4%
same,NNT,"Weight loss, Related",230
same,Risk Ratio (95% CI),"Weight loss, Related",0.247 (0.026 to 2.369) 4
same,Bronchiectasis TEAE: % of subjects,"ITT, AMR101 N = 4089, placebo 0.1, Fisher's Exact p 0.5076",(0.1) %
same,Hepatosplenomegaly TEAE: % of subjects,"ITT, AMR101 N = 4089, placebo 0.1, Fisher's Exact p 0.6249",(0.0) %
same,Allergic sinusitis TEAE: % of subjects,"ITT, AMR101 N = 4089, placebo 0.1, Fisher's Exact p 0.6874",(0.0) %
same,Mucosal inflammation TEAE: % of subjects,"ITT, AMR101 N = 4089, placebo 0.1, Fisher's Exact p 0.7264",(0.1) %
same,Systemic inflammatory response syndrome TEAE: % of subjects,"ITT, AMR101 N = 4089, placebo 0.2, Fisher's Exact p 0.1092",(0.0) %
same,Splenomegaly TEAE: % of subjects,"ITT, AMR101 N = 4089, placebo 0.2, Fisher's Exact p 0.1792",(0.1) %
same,Neutropenia TEAE: % of subjects,"ITT, AMR101 N = 4089, placebo 0.2, Fisher's Exact p 0.2262",(0.1) %
same,Gingivitis TEAE: % of subjects,"ITT, AMR101 N = 4089, placebo 0.2, Fisher's Exact p 0.3013",(0.1) %
same,Orthopnea TEAE: % of subjects,"ITT, AMR101 N = 4089, placebo 0.2, Fisher's Exact p 0.3873",(0.1) %
same,Helicobacter infection TEAE: % of subjects,"ITT, AMR101 N = 4089, placebo 0.2, Fisher's Exact p 0.4235",(0.1) %
same,Herpes simplex TEAE: % of subjects,"ITT, AMR101 N = 4089, placebo 0.2, Fisher's Exact p 0.5807",(0.1) %
same,Vulvovaginal mycotic infection TEAE: % of subjects,"ITT, AMR101 N = 4089, placebo 0.3, Fisher's Exact p 0.2097",(0.1) %
same,Bronchitis chronic TEAE: % of subjects,"ITT, AMR101 N = 4089, placebo 0.3, Fisher's Exact p 0.5029",(0.2) %
same,Hepatobiliary disorders (SOC) TEAE: % of subjects,"ITT, AMR101 N = 4089, placebo 0.5, Fisher's Exact p 0.0037",(0.1) %
same,Hepatomegaly TEAE: % of subjects,"ITT, AMR101 N = 4089, placebo 0.5, Fisher's Exact p 0.0065",(0.1) %
same,Atelectasis TEAE: % of subjects,"ITT, AMR101 N = 4089, placebo 0.5, Fisher's Exact p 0.0795",(0.3) %
same,Emphysema TEAE: % of subjects,"ITT, AMR101 N = 4089, placebo 0.5, Fisher's Exact p 0.2144",(0.3) %
same,Rhinitis TEAE: % of subjects,"ITT, AMR101 N = 4089, placebo 0.5, Fisher's Exact p 0.4166",(0.4) %
same,Tooth infection TEAE: % of subjects,"ITT, AMR101 N = 4089, placebo 0.7, Fisher's Exact p 0.2514",(0.5) %
same,Influenza like illness TEAE: % of subjects,"ITT, AMR101 N = 4089, placebo 0.7, Fisher's Exact p 0.6709",(0.6) %
same,Thrombocytopenia TEAE: % of subjects,"ITT, AMR101 N = 4089, placebo 0.8, Fisher's Exact p 0.3393",(0.6) %
same,Wheezing TEAE: % of subjects,"ITT, AMR101 N = 4089, placebo 0.9, Fisher's Exact p 0.1162",(0.6) %
same,General disorders and administration site conditions (SOC) TEAE: % of subjects,"ITT, AMR101 N = 4089, placebo 1.0, Fisher's Exact p 0.1800",(0.7) %
same,Sepsis TEAE: % of subjects,"ITT, AMR101 N = 4089, placebo 1.0, Fisher's Exact p 0.3535",(0.8) %
same,Blood and lymphatic system disorders (SOC) TEAE: % of subjects,"ITT, AMR101 N = 4089, placebo 1.2, Fisher's Exact p 0.0279",(0.7) %
same,Hepatosplenomegaly TEAE: number of subjects,"ITT, AMR101 N = 4089, placebo 3 of 4090",1
same,Allergic sinusitis TEAE: number of subjects,"ITT, AMR101 N = 4089, placebo 4 of 4090",2
same,Mucosal inflammation TEAE: number of subjects,"ITT, AMR101 N = 4089, placebo 5 of 4090",3
same,Cough TEAE: % of subjects,"ITT, AMR101 N = 4089, placebo 5.9, Fisher's Exact p 1.0000",(5.9) %
same,Bronchiectasis TEAE: number of subjects,"ITT, AMR101 N = 4089, placebo 6 of 4090",3
same,Influenza TEAE: % of subjects,"ITT, AMR101 N = 4089, placebo 6.6, Fisher's Exact p 0.7541",(6.4) %
same,Pneumonia TEAE: % of subjects,"ITT, AMR101 N = 4089, placebo 6.8, Fisher's Exact p 0.5627",(6.4) %
same,"Respiratory, thoracic and mediastinal disorders (SOC) TEAE: % of subjects","ITT, AMR101 N = 4089, placebo 7.8, Fisher's Exact p 0.2050",(7.0) %
same,Herpes simplex TEAE: number of subjects,[6],5
same,Neutropenia TEAE: number of subjects,[6],3
same,Orthopnea TEAE: number of subjects,[6],4
same,Systemic inflammatory response syndrome TEAE: number of subjects,[6],2
same,Helicobacter infection TEAE: number of subjects,"ITT, AMR101 N = 4089, placebo 9 of 4090",5
same,Gingivitis TEAE: number of subjects,[7],5
same,Splenomegaly TEAE: number of subjects,[7],4
same,Vulvovaginal mycotic infection TEAE: number of subjects,"ITT, AMR101 N = 4089, placebo 11 of 4090",5
same,Bronchitis chronic TEAE: number of subjects,"ITT, AMR101 N = 4089, placebo 12 of 4090",8
same,Infections and infestations (SOC) TEAE: % of subjects,"ITT, AMR101 N = 4089, placebo 14.6, Fisher's Exact p 0.2676",(13.8) %
same,Hepatomegaly TEAE: number of subjects,"ITT, AMR101 N = 4089, placebo 19 of 4090",5
same,Emphysema TEAE: number of subjects,"ITT, AMR101 N = 4089, placebo 20 of 4090",12
same,Subjects with at least one Infectious Disease TEAE of Interest: % of subjects,"ITT, AMR101 N = 4089, placebo 21.6, Fisher's Exact p 0.0562",(19.9) %
same,Atelectasis TEAE: number of subjects,[8],11
same,Hepatobiliary disorders (SOC) TEAE: number of subjects,[8],6
same,Rhinitis TEAE: number of subjects,[8],16
same,Influenza like illness TEAE: number of subjects,"ITT, AMR101 N = 4089, placebo 27 of 4090",23
same,Tooth infection TEAE: number of subjects,"ITT, AMR101 N = 4089, placebo 29 of 4090",20
same,Thrombocytopenia TEAE: number of subjects,"ITT, AMR101 N = 4089, placebo 31 of 4090",23
same,Wheezing TEAE: number of subjects,"ITT, AMR101 N = 4089, placebo 36 of 4090",23
same,General disorders and administration site conditions (SOC) TEAE: number of subjects,"ITT, AMR101 N = 4089, placebo 40 of 4090",28
same,Sepsis TEAE: number of subjects,"ITT, AMR101 N = 4089, placebo 42 of 4090",33
same,Blood and lymphatic system disorders (SOC) TEAE: number of subjects,"ITT, AMR101 N = 4089, placebo 48 of 4090",28
same,Subjects with at least one Infectious Disease Events of Interest (TEAE terms and labs): % of subjects,"ITT, AMR101 N = 4089, placebo 86.8, Fisher's Exact p <.0001",(83.0) %
same,Cough TEAE: number of subjects,"ITT, AMR101 N = 4089, placebo 241 of 4090",241
same,Influenza TEAE: number of subjects,"ITT, AMR101 N = 4089, placebo 271 of 4090",263
same,Pneumonia TEAE: number of subjects,"ITT, AMR101 N = 4089, placebo 277 of 4090",263
same,"Respiratory, thoracic and mediastinal disorders (SOC) TEAE: number of subjects","ITT, AMR101 N = 4089, placebo 318 of 4090",287
same,Infections and infestations (SOC) TEAE: number of subjects,"ITT, AMR101 N = 4089, placebo 599 of 4090",563
same,Subjects with at least one Infectious Disease TEAE of Interest: number of subjects,"ITT, AMR101 N = 4089, placebo 883 of 4090",812
same,Subjects with at least one Infectious Disease Events of Interest (TEAE terms and labs): number of subjects,"ITT, AMR101 N = 4089, placebo 3549 of 4090",3394
same,AR: ADHD (AE table),R-I,0.0%
same,AR: Allergic sinusitis (AE table),R-I,0.1%
same,AR: Alzheimer's Disease (AE table),R-I,0.1%
same,AR: Asthma (AE table),R-I,1.3%
same,AR: Atelectasis (AE table),R-I,0.4%
